From patent US20240148821A1, “PHARMACEUTICAL USE OF CYCLIC PEPTIDE COMPOUND” (CHUGAI SEIYAKU KABUSHIKI KAISHA, priority 2021, published 2024) come the findings set out here.

Numbered stars: 1 amine (or outer) side, 2 acyl side, 3 side chain; on linkers, the order of the positions; unused ones are H or OH. Bridge positions count the residues as written; N and C are the ends. Square brackets hold non-standard residues; d marks the D form. Peptide text beside a SMILES is read from it. * marks the point of attachment. hPhe(3-Cl-4-CF3) = N[C@@H](CCc1ccc(C(F)(F)F)c(Cl)c1)C(=O)O; X46 = CN([C@@H](CCC1CN(C(=O)OC(C)(C)C)C1)C(=O)[*:2])[*:1]; hPhe(3-F,4-CF3) = N[C@@H](CCc1ccc(C(F)(F)F)c(F)c1)C(=O)O; X112 = O=C([C@H](CCOc1ccc(C(F)(F)F)cc1)N[*:1])[*:2]; hPhe(4-CF3) = N[C@@H](CCc1ccc(C(F)(F)F)cc1)C(=O)O; NMePhe(4-Cl) = CN[C@@H](Cc1ccc(Cl)cc1)C(=O)O; X11 = O=C([C@H](CCc1ccc2occc2c1)N[*:1])[*:2]; NEtPhe(2-Cl) = CCN[C@@H](Cc1ccccc1Cl)C(=O)O; NMeGly(cPent) = CN[C@H](C(=O)O)C1CCCC1; NMeCha = CN[C@@H](CC1CCCCC1)C(=O)O; Hyp = O=C(O)[C@@H]1C[C@@H](O)CN1; NMeChg = CN[C@H](C(=O)O)C1CCCCC1; NMeD = CN[C@@H](CC(=O)O)C(=O)O; NMeL = CN[C@@H](CC(C)C)C(=O)O; NMeV = CN[C@H](C(=O)O)C(C)C; d(β3hA) = C[C@@H](N)CC(=O)O; Azetidin(1-yl) = C1CN(*)C1; Morpholide = C1CN(*)CCO1; NMeA = CN[C@@H](C)C(=O)O; Piperidide = C1CCN(*)CC1; Pyrrolidide = C1CCN(*)C1; Ac5c = NC1(C(=O)O)CCCC1; Aze = O=C(O)[C@@H]1CCN1; NBuGly = CCCCNCC(=O)O; Aib = CC(C)(N)C(=O)O; Sar = CNCC(=O)O

For the experiment, the target named is protein-protein interaction between Kras and SOS1 (biotin-tagged human Kras loaded with GDP, His-tagged human SOS1) (Homo sapiens (Human), UniProt P01116, G12D). Put plainly: Protein-protein interaction inhibition between Kras and SOS1 (KrasG12D-SOS PPI) using AlphaScreen.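 Further: kras produced in E. coli, Ni-coupled donor beads and streptavidin acceptor beads, excitation 680 nm with emission detected at 520–620 nm via singlet oxygen transfer.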 Conditions: AlphaScreen; biotin-tagged human Kras loaded with GDP, His-tagged human SOS1; read-out: KRAS G12D-SOS PPI IC50. The class given is biochemical.
As usually defined, the IC50 is the midpoint of a concentration-inhibition curve. Consider `CCO[C@@H]1C[C@H]2C(=O)NC3(CCCC3)C(=O)N(C)[C@@H](CC(C)C)C(=O)N(C)[C@H](C(=O)N3CCCC3)CC(=O)N(C)[C@@H](CC(C)C)C(=O)N[C@@H]([C@@H](C)CC)C(=O)N(C)CC(=O)N(C)CC(=O)N(C)[C@@H](CC3CCCCC3)C(=O)N(C)CC(=O)N[C@@H](CCc3ccc(C(F)(F)F)c(Cl)c3)C(=O)N2C1` [Compound 1748] ([NMeL]I[Sar][Sar][NMeCha][Sar][hPhe(3-Cl-4-CF3)][Hyp](Et)[Ac5c][NMeL][NMeD]-Pyrrolidide; lactam N-11), for which the IC50 worked out at 0.61 nM. As to `CC[C@H](C)[C@@H]1NC(=O)[C@H](CC(C)C)N(C)C(=O)C[C@@H](C(=O)N2CCC2)N(C)C(=O)[C@H](C(C)C)N(C)C(=O)C2(CCCC2)NC(=O)[C@@H]2CCCN2C(=O)[C@H](CCc2ccc(C(F)(F)F)c(Cl)c2)NC(=O)CN(C)C(=O)[C@H](CC2CCCCC2)N(C)C(=O)[C@@H]2CCN2C(=O)[C@H](C)N(C)C1=O` [Compound 256] ([NMeL]I[NMeA][Aze][NMeCha][Sar][hPhe(3-Cl-4-CF3)]P[Ac5c][NMeV][NMeD]-{Azetidin(1-yl)}; lactam N-11), the IC50 came to 0.98 nM. Under `CC[C@H](C)[C@@H]1NC(=O)[C@H](C)N(C)C(=O)C[C@@H](C(=O)N2CCOCC2)N(C)C(=O)[C@H](C(C)C)N(C)C(=O)C2(CCCC2)NC(=O)[C@H](Cc2ccccc2Cl)N(CC)C(=O)[C@H](CCc2ccc(C(F)(F)F)c(Cl)c2)NC(=O)CN(C)C(=O)[C@H](CC2CCCCC2)N(C)C(=O)CN(C)C(=O)CN(C)C1=O` [Compound 2167] ([NMeA]I[Sar][Sar][NMeCha][Sar][hPhe(3-Cl-4-CF3)][NEtPhe(2-Cl)][Ac5c][NMeV][NMeD]-Morpholide; lactam N-11) stands 380 nM; under `CC[C@H](C)[C@@H]1NC(=O)[C@H](CC(C)C)N(C)C(=O)C[C@@H](C(=O)N2CCCCC2)N(C)C(=O)[C@H](C2CCCCC2)N(C)C(=O)C2(CCCC2)NC(=O)[C@H](CCC2CN(C(=O)OC(C)(C)C)C2)N(C)C(=O)[C@H](CCc2ccc(C(F)(F)F)c(Cl)c2)NC(=O)CN(C)C(=O)[C@H](CC2CCCCC2)N(C)C(=O)CN(C)C(=O)CN(C)C1=O` [Compound 2056, tert-butyl 3-[2-[(8S,11S,17S,26S,29S,33S,36S)-11-[2-[3-chloro-4-(trifluoromethyl)phenyl]ethyl]-36-cyclohexyl-17-(cyclohexylmethyl)-29-isobutyl-9,15,18,21,24,30,34,37-octamethyl-26-[(1S)-1-methylpropyl]-7,10,13,16,19,22,25,28,31,35,38-undecaoxo-33-(piperidine-1-carbonyl)-6,9,12,15,18,21,24,27,30,34,37-undecazaspiro[4.3 3]octatriacontan-8-yl]ethyl]azetidine-1-carboxylate] ([NMeL]I[Sar][Sar][NMeCha][Sar][hPhe(3-Cl-4-CF3)][X46][Ac5c][NMeChg][NMeD]-Piperidide; lactam N-11), 13 nM; under `CCCCN1CC(=O)N(C)CC(=O)N(C)[C@@H](Cc2ccc(Cl)cc2)C(=O)N(C)CC(=O)N[C@@H](CCc2ccc(C(F)(F)F)cc2)C(=O)N(C)[C@@H](CC(C)C)C(=O)NC(C)(C)C(=O)N(C)[C@@H](CC(C)C)C(=O)N[C@H](C)CC(=O)N(C)[C@@H](C)C(=O)N[C@@H]([C@@H](C)CC)C1=O` [Compound 436] (cyclo([Aib][NMeL][d(β3hA)][NMeA]I[NBuGly][Sar][NMePhe(4-Cl)][Sar][hPhe(4-CF3)][NMeL])), 160 nM.

As for `CC[C@H](C)[C@@H]1NC(=O)[C@H](CC(C)C)N(C)C(=O)C[C@@H](C(=O)N2CCCCC2)N(C)C(=O)[C@H](C2CCCC2)N(C)C(=O)C2(CCCC2)NC(=O)[C@@H]2CCCN2C(=O)[C@H](CCc2ccc3occc3c2)NC(=O)CN(C)C(=O)[C@H](CC2CCCCC2)N(C)C(=O)[C@@H]2CCN2C(=O)[C@H](C)N(C)C1=O` [Compound 2063] ([NMeL]I[NMeA][Aze][NMeCha][Sar][X11]P[Ac5c][NMeGly(cPent)][NMeD]-Piperidide; lactam N-11 (inferred); C-terminus assumed), the IC50 came to 8.8 nM.

Regarding `CC[C@H](C)[C@@H]1NC(=O)[C@H](C)N(C)C(=O)C[C@@H](C(=O)N2CCCCC2)N(C)C(=O)[C@H](C2CCCCC2)N(C)C(=O)C2(CCCC2)NC(=O)[C@@H]2CCCN2C(=O)[C@H](CCOc2ccc(C(F)(F)F)cc2)NC(=O)CN(C)C(=O)[C@H](CC2CCCCC2)N(C)C(=O)CN(C)C(=O)CN(C)C1=O` [Compound 2041, (3S,9S,18S,21S,25S,28S,34S)-28-cyclohexyl-9-(cyclohexylmethyl)-7,10,13,16,21,22,26,29-octamethyl-18-[(1S)-1-methylpropyl]-25-(piperidine-1-carbonyl)-3-[2-[4-(trifluoromethyl)phenoxy]ethyl]spiro[1,4,7,10,13,16,19,22,26,29,32-undecazabicyclo[32.3.0]heptatriacontane-31,1′-cyclopentane]-2,5,8,11,14,17,20,23,27,30,33-undecone] ([NMeA]I[Sar][Sar][NMeCha][Sar][X112]P[Ac5c][NMeChg][NMeD]-Piperidide; lactam N-11), the IC50 was 110 nM. As to `CC[C@H](C)[C@@H]1NC(=O)[C@H](CC(C)C)N(C)C(=O)C[C@@H](C(=O)N2CCCC2)N(C)C(=O)[C@H](C2CCCC2)N(C)C(=O)C2(CCCC2)NC(=O)[C@@H]2CCCN2C(=O)[C@H](CCc2ccc(C(F)(F)F)c(F)c2)NC(=O)CN(C)C(=O)[C@H](C2CCCC2)N(C)C(=O)[C@@H]2CCN2C(=O)[C@H](C)N(C)C1=O` [Compound 918] ([NMeL]I[NMeA][Aze][NMeGly(cPent)][Sar][hPhe(3-F,4-CF3)]P[Ac5c][NMeGly(cPent)][NMeD]-Pyrrolidide; lactam N-11), the IC50 worked out at 0.89 nM.
